# Results from PMC6054100, “Exploring the chemical space of the lysine-binding pocket of the first kringle domain of hepatocyte growth factor/scatter factor (HGF/SF) yields a new class of inhibitors of HGF/SF-MET binding” (Chemical Science, 2015).
# Biological target: T1, NK1 (Homo sapiens, UniProt P14210)
# Assay: SPR fragment library screening against NK1
# Type: binding
# Design: made in house; host or cells: Pichia pastoris
# Conditions: based on fragment screening; rank among the 71 NK1 hits (ESI Tables S3-S7)
# Description: Supplementary Materials and Methods
# Fragment library screening and data analysis
# Met567 (soluble truncated f ragment of the MET ectodomain, residues 25- 567), NK1 and t he SPH domain were immobilized on CM5 chips by amine coupling. NK1 was diluted into 10 m M phosphate pH 7.0 and the SPH domain into 10 mM acetate pH 5.5 to a final concentration of 2.5 μM and 1 μM, respectively, for coupling. The immobilization wizard within the Biacore T100 software was set to “aim for immobiliz ed level” of 8000 RU to achieve complete saturation of the chip surface.
# W ith minor deviations, the procedure and conditions outlined below were used f or a ll screening s of an in-house fragment library of 1338 members against individual target proteins. The running buffer was PBS pH 7.4, 0.05% Tween 20, 0.25% DMSO (1% DMSO for Met567). Fragments were stored as 100 mM stock solutions in DMSO. Prior to screening, fragment samples were diluted to 500 μM (1 mM f or Met567) in running buffer.
# Screening was performed in 96- we ll plates at a flow rate of 30 μl min-1 with 1 min sample injection f ollowed by dissociation f or 1 min and surf ace regeneration using 1 M NaCl f or 30 […]
# post-regeneration baseline exceeded the pre- sample baseline by more than 10 RU, a second regeneration cycle with 50% ethylene glycol was used. In order to be able to correct for small variations in DMSO concentration between samples, eight solvent samples ranging from 0.012 to 1.5% DMSO were injected every 40th cycle. To monitor the binding capacity of the NK1, SPH and Met567 surfaces throughout the screening, injections of 500 μM HEPES (NK1), 0.25 μM Met567 (SPH) and 0.2 μM NK1 and 1% DMSO (Met567) were carried out every 40th cycle. The flow cell temperature was 25°C. NK1 and the SPH domain were immobilized on the same chip (channels 2 and 3 respectively) and were theref ore screened in parallel. Met567 was screened separately and results are published in an accompanying paper (W in t er et al. 2015, in revision).
# For data analysis, fir st, all responses were reference and solvent corrected. 1 Next, equilibrium binding for every fragment was determined and hits established by applying several filters: sensorgram shape, upper and lower threshold. Typical sensorgrams from fragment screening show “square curves” in SPR due to the fast on and off rates and fragments not showing this response were discarded from further analysis. Binding levels are represented as response units (RU) but the SPR signal is a convolution of multiple parameters including target coupling density, target -binding activity, target molecular weight and molecular weight of each injected fragment. To be able to identif y hits accurately and to be able to compare responses between different plates and targets, data were normalised against these factors. First the theoretical maximum response for each fragment was calculated using equation 1:
# RRmmm = CCCCCCCC ddCdCdd× MMffmCmdCd (Equation 1)
# This RUmax value diff ers for each protein target because it depends on the molecular weight of the protein and the amount of protein immobilized on the chip (coupling density). The RUmax was then used to calculate the normalised relative SPR response:
# NNNNNNNNNN NNNNr NrN SSR NNNrNrNN = RRcppppcppc× 100% (Equation 2) […]
# fragment should cause upon binding. 100% response would be 1:1 binding wit h levels above 100% implying over-stoichiometric binding. […]
# Fragment library screening to identify small molecule binders
# T1 sequence (P14210 32-210 isoform P14210-6 limits assumed): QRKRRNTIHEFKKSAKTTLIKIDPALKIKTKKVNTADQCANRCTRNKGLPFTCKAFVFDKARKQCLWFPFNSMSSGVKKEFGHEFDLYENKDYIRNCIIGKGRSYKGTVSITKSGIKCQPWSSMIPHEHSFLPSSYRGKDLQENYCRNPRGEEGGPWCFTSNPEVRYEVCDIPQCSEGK
row,SMILES,Ranking order
1,CC(C)(N)CN1CCCC1 [MB1017],71
2,CN(C)C(=O)c1ccc2nccnc2c1 [MB1058],29
3,CN(C)C(=O)C1CCOCC1 [MB1065],57
4,O=C(C1CCOCC1)N1CCCCC1 [MB1066],62
5,O=C(C1CCCCO1)N1CCCC1 (centres unmarked) [MB1067],68
6,NC(=S)N1CCOCC1 [MB1082],43
7,Nc1ccc(OC(F)(F)F)cc1 [MB1100],70
8,O=C(O)C1CCNCC1 [MB1129],67
9,Cc1noc(N)c1C [MB1136],55
10,NC(=O)Cc1ccc(O)cc1 [MB1174],53
11,CSc1ccc(C(=O)O)s1 [MB1217],49
12,NC(=S)c1ncc(C(F)(F)F)cc1N1CCCC1 [MB1218],37
13,N#CCOc1cccc(C(F)(F)F)c1 [MB1251],27
14,CC(=O)c1ccc(OC(F)(F)F)cc1 [MB1291],26
15,CCc1cccc(C(C)=O)c1 [MB1300],14
16,COC(=O)CSc1ccccc1 [MB1308],34
17,NC(=O)Cc1ccc(F)cc1Cl [MB1321],28

# The remaining lines, values ahead:
row,Ranking order,SMILES
1,19,Cc1nc(-c2ccc(C#N)cc2)cs1 [MB1236]
2,4,Cc1ccsc1CN [MB1237]
3,3,Cc1nc(C#N)cs1 [MB1250]
4,10,Cc1nc(C(N)=S)cs1 [MB1252]
5,11,COC(=O)c1ccccc1F [MB1253]
6,8,Cc1ccc(C#N)c(=O)[nH]1 [MB1260]
7,30,COC(=O)c1ccccc1OC(F)(F)F [MB1292]
8,25,COC(=O)c1ccc(F)cc1Cl [MB1301]
9,31,COC(=O)c1ccc(C)c(Cl)c1 [MB1307]
10,35,CC(=O)NCc1cccnc1 [MB1317]

# Same assay, conditions: normalised relative value against NK1; fragments 500 μM (ESI Tables S3-S7)
row,SMILES,SPR response
1,CC(C)(N)CN1CCCC1 [MB1017],26%
2,CN(C)C(=O)c1ccc2nccnc2c1 [MB1058],63%
3,CN(C)C(=O)C1CCOCC1 [MB1065],38%
4,O=C(C1CCOCC1)N1CCCCC1 [MB1066],34%
5,O=C(C1CCCCO1)N1CCCC1 (centres unmarked) [MB1067],28%
6,NC(=S)N1CCOCC1 [MB1082],53%
7,Nc1ccc(OC(F)(F)F)cc1 [MB1100],27%
8,O=C(O)C1CCNCC1 [MB1129],30%
9,Cc1noc(N)c1C [MB1136],39%
10,NC(=O)Cc1ccc(O)cc1 [MB1174],43%
11,CSc1ccc(C(=O)O)s1 [MB1217],50%
12,NC(=S)c1ncc(C(F)(F)F)cc1N1CCCC1 [MB1218],57%
13,N#CCOc1cccc(C(F)(F)F)c1 [MB1251],66%
14,CC(=O)c1ccc(OC(F)(F)F)cc1 [MB1291],68%
15,CCc1cccc(C(C)=O)c1 [MB1300],93%
16,COC(=O)CSc1ccccc1 [MB1308],60%
17,NC(=O)Cc1ccc(F)cc1Cl [MB1321],65%

# Next, values leading:
row,SPR response,SMILES
1,83%,Cc1nc(-c2ccc(C#N)cc2)cs1 [MB1236]
2,118%,Cc1ccsc1CN [MB1237]
3,126%,Cc1nc(C#N)cs1 [MB1250]
4,101%,Cc1nc(C(N)=S)cs1 [MB1252]
5,98%,COC(=O)c1ccccc1F [MB1253]
6,105%,Cc1ccc(C#N)c(=O)[nH]1 [MB1260]
7,63%,COC(=O)c1ccccc1OC(F)(F)F [MB1292]
8,70%,COC(=O)c1ccc(F)cc1Cl [MB1301]
9,62%,COC(=O)c1ccc(C)c(Cl)c1 [MB1307]
10,60%,CC(=O)NCc1cccnc1 [MB1317]

# Same assay, conditions: normalised relative value against NK1; initial fragment screening, fragments 500 μM (Table 3)
row,SPR response,SMILES
1,53%,NC(=S)N1CCOCC1 [MB1082]

# Biological target: T1, NK1
# Assay: SPR steady-state binding to immobilized NK1 (Biacore T100)
# Design: made in house; host or cells: Pichia pastoris
# Conditions: steady-state binding constant from SPR (ESI Tables S3-S7); read-out: KD
# Description: Binding constants of piperazine-like compounds and fragments were determined using a Biacore T100 instrument. NK1 was immobilized on a CM5 chip by amine coupling to a density of 6000 RU. Compounds were stored as 100 mM stock solutions in water and serial dilutions were prepared in the running buffer (PBS pH 7.4, 0.05% Tween 20). The compound solutions were injected onto the surface of the chip at a flow rate of 30 μL min^–1, contact time was 1 min and dissociation time 1 min. Sensorgrams were analysed using the Biacore T100 evaluation software and the binding constants determined.
row,Kd,SMILES
1,17.3 mM,NC(=S)c1ncc(C(F)(F)F)cc1N1CCCC1 [MB1218]
2,1.2 mM,Cc1nc(-c2ccc(C#N)cc2)cs1 [MB1236]
3,4.2 mM,Cc1ccsc1CN [MB1237]
4,1.8 mM,Cc1nc(C#N)cs1 [MB1250]
5,5.2 mM,Cc1nc(C(N)=S)cs1 [MB1252]
6,2.9 mM,COC(=O)c1ccccc1F [MB1253]
7,5.6 mM,Cc1ccc(C#N)c(=O)[nH]1 [MB1260]

# Same assay, conditions: steady-state binding constant from SPR; MB605-related compounds (Table 4); read-out: KD
row,SMILES,Kd
1,"O=C(O)CCc1ccccc1 [501-520-0, hydrocinnamic acid]",2.2 ± 0.9 mM
2,"O=P(O)(O)CCc1ccccc1 [4672-30-4, 2-phenylethyl phosphonic acid]",2.2 ± 0.4 mM
3,"O=C(O)CCc1cccs1 [5928-51-8, 2-thiophenepropanoic acid]",1.1 ± 0.3 mM

# More lines, now with the values ahead:
row,Kd,SMILES
1,2.1 ± 0.3 mM,O=C(O)CCc1ccc(-c2ccccc2F)o1 [T5445870]
2,0.7 ± 0.2 mM,O=C(O)CCc1cc2ccccc2o1 [T5480685]

# Same assay, conditions: steady-state binding constant from SPR; fragment hits (Table 3, text); read-out: KD
row,Kd,SMILES
1,0.37 ± 0.04 mM,NC(=S)N1CCOCC1 [MB1082]
